How the values were obtained:
[1] = Stability of bisacodyl in poloxamer melt; type: physicochemical; settings: hot melt of bisacodyl and poloxamer
Text: Such a product will have advantages with regard to dosage form and other properties. […] Furthermore production scale enteric coating of capsules containing a low melting point, waxy, solid is very difficult due to melting and leakage or softening and deformation of the waxy, low melting point poloxamer.

[2] = cited from earlier work

SMILES: CC(=O)Oc1ccc(C(c2ccc(OC(C)=O)cc2)c2ccccn2)cc1 [Bisacodyl]
- stability of bisacodyl in poloxamer [1]: unstable in poloxamer
- time to action in the large intestine ([2]; following oral administration): 6 to 12 h
- onset of action ([2]; suppositories): 20 to 60 min
